Data as given in patent US20210386668A1, “Cyclodextrin for use in the treatment and prevention of late phase bronchoconstriction in allergen-induced asthma” (Universite de Liege, priority 2020, published 2021).

Tested on: BALB/c mice, house dust mite (HDM)-induced inflammation and AHR
Type: in vivo
Protocol: The impact of HPBCD on asthma-associated inflammation and bronchial hyperresponsiveness was investigated in a mouse model of airway inflammation and hyperresponsiveness.
Six to seven mice per group were tested. Two-tailed Mann-Whitney test were performed with p-values of *P<0.05, **P<0.01 in two independent experiments.
Two intranasal instillations of house dust mite were performed on days 0 and 7 to induce the migration of specific memory CD4+ T-cells into lung parenchyma, followed by a challenge instillation on day 14. […] The last house dust mite instillation was preceded by two days of HPBCD or PBS inhalations and followed by three inhalations until sacrifice (FIG. 1A). […] Airway responsiveness was evaluated by exposing animals to increasing doses of inhaled methacholine and by measuring Newtonian resistances representing the resistance of central or conducting airways. […] The bronchoalveolar lavage fluid (BALF) was then recovered and analyzed for cell content. […] The effect of HPBCD inhalation on T-cell numbers in lung parenchyma was investigated by flow cytometry.
Males BALB/c mice of 6 to 8 weeks old were purchased from Janvier Labs (Saint-Berthevin, France). All mice were bred and housed in University facilities. All experiences and protocols were previously approved by local ethic (animal care and use) committee from the University of Liege.
Mice were lightly isoflurane-anesthetized and received an intra-nasal (i.n) instillation of HDM extract (100 μg; 50 μl) in endotoxin-free saline on days 0, 7 and 14. Mice were subjected to inhalation (generated by ultrasonic nebulizer (Devilbiss 2000)) of HPBCD 10 mM or endotoxin-free saline for 40 minutes between day 12 and 16. On day 14, they received the inhalation 1 h before the last i.n. instillation of HDM. After measurement of bronchial responsiveness using the FlexiVent System, mice were sacrificed on day 17. Mice submitted to ovalbumin as allergen were i.p injected with 10 mcg ovalbumin grade 5 and exposed to ovalbumin grade 3 by inhalation between day 21 and 25. Mice were treated with HPBCD 10 mM given by inhalation between day 19 and 25. After measurement of bronchial responsiveness using the FlexiVent System, mice were sacrificed on day 26.
Mice were anesthetized by intraperitoneal injection with a mixture of ketamine (10 mg/ml, Merial, Brussel, Belgium) and xylazine (1 mg/ml, VMD, Arendonk, Belgium). A tracheotomy was performed by insertion of a 20 gauge polyethylene catheter into the trachea. Mice were ventilated with a flexiVent small animal Ventilator® (SCIREQ, Montreal, Canada) as previously described (18). Respiratory parameters following methacholine challenge (3, 6, and 12 gr/l (or 24 gr/l)) were evaluated using a 3 sec broadband signal to measure input impedance from 1 to 20.5 Hz and to calculate constant-phase model parameters (Quick-prime 3). Newtonian resistance (Rn) was the main parameter measured during the challenge.
Mice were sacrificed and a bronchoalveolar lavage was performed using PBS-EDTA 0.05 mM (Calbiochem, Darmstadt, Germany). Cells were recovered by gentle manual aspiration. After centrifugation of bronchoalveolar fluid (BALF) (1200 rpm; 10 min; 4° C.), the cell pellet was resuspended in 0.5 ml PBS-EDTA 0.05 mM. The differential cell counts were performed on cytocentrifuged preparations (Cytospin) after Diff-Quick (Dade, Belgium) staining.
Left lung was excised and snap frozen in liquid nitrogen. Right lung was infused with 4% paraformaldehyde, embedded in paraffin and used for histology. Sections of 5 μm thickness were cut off from paraffin and were stained with haematoxylin-eosin to estimate the extent of inflammation (18) and with Alcian blue (mucin stain).
To obtain single-lung-cell suspensions, lungs were perfused with 10 ml HBSS through the right ventricle, razor-cut into small pieces and digested for 1 hour at 37° C. in 1 mg/ml collagenase A (Roche) and 0.05 mg/ml DNasel (Roche) in HBSS. […]

With `CC(O)COC[C@H]1O[C@@H]2O[C@H]3[C@H](O)[C@@H](O)[C@@H](O[C@H]4[C@H](O)[C@@H](O)[C@@H](O[C@H]5[C@H](O)[C@@H](O)[C@@H](O[C@H]6[C@H](O)[C@@H](O)[C@@H](O[C@H]7[C@H](O)[C@@H](O)[C@@H](O[C@H]8[C@H](O)[C@@H](O)[C@@H](O[C@H]1[C@H](O)[C@H]2O)O[C@@H]8COCC(C)O)O[C@@H]7COCC(C)O)O[C@@H]6COCC(C)O)O[C@@H]5COCC(C)O)O[C@@H]4COCC(C)O)O[C@@H]3COCC(C)O` (stereo partly drawn) [HPBCD, 2-hydroxypropyl-beta-cyclodextrin] the “airway responsiveness to methacholine (Newtonian resistance)” value (HPBCD 10 mM inhalation vs PBS, HDM-challenged mice, FIG. 1B) was “significantly decreased”, the “extent of inflammation around the bronchi” value (HPBCD vs placebo, FIG. 1D) was “reduced” and the “number of Alcian blue positive mucus producing epithelial cells” value (HPBCD vs placebo, FIG. 1E) was “reduced”. For the same compound, the “eosinophilic inflammation in BALF” value (HPBCD-exposed vs placebo, FIG. 1C) was “significantly decreased”, the “number of TH2 cells (CD3+CD4+T1ST2+ ICOS+) in lung parenchyma” value (mouse, in vivo) was “nor the number of TH2 cells (CD3+CD4+T1ST2+ ICOS+) were modified” and the “number of total CD4+ T-cells (CD3+CD4+) in lung parenchyma” value (mouse, in vivo) was “Neither the number of total CD4+ T-cells (CD3+CD4+) nor the number of TH2 cells (CD3+CD4+T1ST2+ ICOS+) were modified”.
